2 compounds from ChEMBL document CHEMBL2429858, “Five new degraded diterpenoids from Trigonostemon xyphophylloides” (Bioorg Med Chem Lett, 2013) can be followed below.

In general, IC50 refers to the concentration that inhibits the measured activity by half.

Each structure is given as a SMILES string.

For one test, the system named is SGC-7901. In words: Cytotoxicity against human SGC7901 cells after 48 hrs by MTT assay. The class given is functional, cell-based. As to conditions: SGC-7901, 48 h. For orientation: Formazan colour is commonly taken as a measure of viable cells.
Test [1] can be described thus: Cytotoxicity against human SPCA1 cells after 48 hrs by MTT assay. The class given is functional, cell-based. The following applies: SPCA1, 48 h.

For the compound `CO[C@@]12[C@H](COC(N)=O)C3=C(C(=O)C(C)=C(N)C3=O)N1C[C@@H]1N[C@@H]12` [MITOMYCIN], the half-inhibitory concentration (IC50) with SGC-7901 was determined as 2.05 µM; in test [1], 1.68 µM.
The like results for `COc1c(O)c(C)cc2c1C1=CC(=O)C(C)(C)C1=CC2=O` [TRIGOXYPHIN N] were, in that order, 5 µM and 4.08 µM.
